Key:
[1] = target: T1, human recombinant serotonin (5-Hydroxytryptamine) 5-HT2A receptor (Homo sapiens, UniProt P28223); assay: Serotonin 5-HT2A radioligand binding ([3H]Ketanserin); conditions: compound at 1 μM; read-out: Serotonin (1 μM) 5-HT2A, percent inhibition of specific binding
T1 construct: expressed in transfected cells; host or cells: CHO-K1 cells
Protocol: To evaluate in radioligand binding assays the activity of compounds of the invention, human recombinant serotonin (5-Hydroxytryptamine) 5-HT2A receptor expressed in Chinese hamster ovary (CHO-K1) cells (Bonhaus, D. W. et al. Br. J. Pharmacol. 115:622, 1995; Saucier, C. and Albert, P. R., J. Neurochem. 68:1998, 1997) in a 50 mM Tris-HCl buffer, pH 7.4, was used. Compounds of the invention were incubated with 0.5 nM [^3H]Ketanserin for 60 min. at 25° C. Non-specific binding was estimated in the presence of 1 μM Mianserin. Receptor proteins were filtered and washed, the filters were then counted to determine [^3H]Ketanserin specifically bound. Compounds were screened at 1 μM or lower, using 1% DMSO as vehicle. Biochemical assay results are presented as the percent inhibition of specific binding in Table 6.

[2] = target: T2, human recombinant histamine H2 receptor (Homo sapiens, UniProt P25021); assay: Histamine H2 radioligand binding ([125I]Aminopotentidine); conditions: compound at 1 μM; read-out: Histamine Binding (1 μM) H2, percent inhibition of specific binding
T2 construct: expressed in transfected cells; host or cells: CHO-K1 cells
T2 sequence (P25021 whole entry): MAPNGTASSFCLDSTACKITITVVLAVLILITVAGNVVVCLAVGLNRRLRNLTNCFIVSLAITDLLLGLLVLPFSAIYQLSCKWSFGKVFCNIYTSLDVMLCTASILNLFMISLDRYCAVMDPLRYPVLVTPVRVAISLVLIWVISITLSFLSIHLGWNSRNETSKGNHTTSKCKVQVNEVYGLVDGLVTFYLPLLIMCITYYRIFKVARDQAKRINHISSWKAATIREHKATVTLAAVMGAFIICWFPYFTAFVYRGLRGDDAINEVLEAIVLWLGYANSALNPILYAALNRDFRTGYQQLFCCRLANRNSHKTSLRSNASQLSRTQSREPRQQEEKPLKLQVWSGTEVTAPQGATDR
Protocol: To evaluate in radioligand binding assays the activity of compounds of the invention, human recombinant histamine H2 receptor expressed in Chinese hamster ovary (CHO) K1 cells (Ruat, M., Proc. Natl. Acad. Sci. USA. 87(5):1658, 1990) in a 50 mM Phosphate buffer, pH 7.4 was used. Compounds of the invention were incubated with 0.1 nM [^125I]Aminopotentidine for 120 min. at 25° C. Non-specific binding was estimated in the presence of 3 μM Tiotidine. Receptor proteins were filtered and washed, the filters were then counted to determine [^125I]Aminopotentidine specifically bound. Compounds were screened at 1 μM or lower, using 1% DMSO as vehicle. Biochemical assay results are presented as the percent inhibition of specific binding in Table 6.

[3] = target: T3, human recombinant serotonin (5-Hydroxytryptamine) 5-HT2C receptor (Homo sapiens, UniProt P28335); assay: Serotonin 5-HT2C radioligand binding ([3H]Mesulergine); conditions: compound at 1 μM; read-out: Serotonin (1 μM) 5-HT2C, percent inhibition of specific binding
T3 construct: expressed in transfected cells; host or cells: CHO-K1 cells
T3 sequence (P28335 33-458): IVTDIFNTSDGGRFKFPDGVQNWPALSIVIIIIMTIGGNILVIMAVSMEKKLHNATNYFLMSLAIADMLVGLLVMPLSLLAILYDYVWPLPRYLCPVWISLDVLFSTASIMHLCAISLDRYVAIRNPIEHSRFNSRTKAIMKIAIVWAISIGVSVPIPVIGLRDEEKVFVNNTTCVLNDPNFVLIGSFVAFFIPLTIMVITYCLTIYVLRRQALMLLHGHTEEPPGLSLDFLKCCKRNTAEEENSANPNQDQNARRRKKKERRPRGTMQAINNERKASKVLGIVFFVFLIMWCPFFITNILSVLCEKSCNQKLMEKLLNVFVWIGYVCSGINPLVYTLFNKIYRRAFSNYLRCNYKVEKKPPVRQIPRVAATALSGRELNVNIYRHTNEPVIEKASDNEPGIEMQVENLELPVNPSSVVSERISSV
Protocol: To evaluate in radioligand binding assays the activity of compounds of the invention, human recombinant serotonin (5-Hydroxytryptamine) 5-HT2C receptor expressed in Chinese hamster ovary (CHO-K1) cells (Wolf, W. A. and Schutz, J. S., J. Neurochem. 69:1449, 1997) in a modified Tris-HCl buffer (50 mM Tris-HCl, pH 7.4, 0.1% Ascorbic Acid, 10 μM Pargyline) was used. Compounds of the invention were incubated with 1 nM [^3H]Mesulergine for 60 min. at 25° C. Non-specific binding was estimated in the presence of 1 μM Mianserin. Receptor proteins were filtered and washed, the filters were then counted to determine [^3H]Mesulergine specifically bound. Compounds were screened at 1 μM or lower, using 1% DMSO as vehicle. Biochemical assay results are presented as the percent inhibition of specific binding in Table 6.

[4] = target: T4, human recombinant serotonin (5-Hydroxytryptamine) 5-HT6 receptor (Homo sapiens, UniProt P50406); assay: Serotonin 5-HT6 radioligand binding ([3H]LSD); conditions: compound at 1 μM; read-out: Serotonin (1 μM) 5-HT6, percent inhibition of specific binding
T4 construct: expressed in transfected cells; host or cells: human HeLa cells
T4 sequence (P50406 whole entry): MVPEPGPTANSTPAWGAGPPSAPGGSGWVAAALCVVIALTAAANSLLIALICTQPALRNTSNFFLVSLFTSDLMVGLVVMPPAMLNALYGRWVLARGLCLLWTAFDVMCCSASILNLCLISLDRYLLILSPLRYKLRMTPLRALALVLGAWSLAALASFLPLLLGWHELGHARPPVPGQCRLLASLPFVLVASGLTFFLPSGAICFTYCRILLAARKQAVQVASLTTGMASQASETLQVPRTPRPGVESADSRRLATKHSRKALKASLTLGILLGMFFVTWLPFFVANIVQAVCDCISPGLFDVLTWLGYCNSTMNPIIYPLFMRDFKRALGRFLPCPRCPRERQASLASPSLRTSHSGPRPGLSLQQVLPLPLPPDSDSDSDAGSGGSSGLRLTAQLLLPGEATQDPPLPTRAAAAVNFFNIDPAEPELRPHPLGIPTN
Protocol: To evaluate in radioligand binding assays the activity of compounds of the invention, human recombinant serotonin (5-Hydroxytryptamine) 5-HT6 receptor expressed in human HeLa cells (Monsma, F. J. Jr. et al., Mol. Pharmacol. 43:320, 1993) in a modified Tris-HCl buffer (50 mM Tris-HCl, pH 7.4, 150 mM NaCl, 2 mM Ascorbic Acid, 0.001% BSA) was used. Compounds of the invention were incubated with 1.5 nM [3H]Lysergic acid diethylamide (LSD) for 120 min. at 37° C. Non-specific binding was estimated in the presence of 5 μM Serotonin (5-HT). Receptor proteins were filtered and washed, the filters were then counted to determine [3H]LSD specifically bound. Compounds were screened at 1 μM or lower, using 1% DMSO as vehicle. Biochemical assay results are presented as the percent inhibition of specific binding in Table 6.

[5] = target: T5, human recombinant histamine H1 receptor (Homo sapiens, UniProt P35367); assay: Histamine H1 radioligand binding ([3H]Pyrilamine); conditions: compound at 1 μM; read-out: Histamine Binding (1 μM) H1, percent inhibition of specific binding
T5 construct: expressed in transfected cells; host or cells: CHO cells
T5 sequence (P35367 whole entry): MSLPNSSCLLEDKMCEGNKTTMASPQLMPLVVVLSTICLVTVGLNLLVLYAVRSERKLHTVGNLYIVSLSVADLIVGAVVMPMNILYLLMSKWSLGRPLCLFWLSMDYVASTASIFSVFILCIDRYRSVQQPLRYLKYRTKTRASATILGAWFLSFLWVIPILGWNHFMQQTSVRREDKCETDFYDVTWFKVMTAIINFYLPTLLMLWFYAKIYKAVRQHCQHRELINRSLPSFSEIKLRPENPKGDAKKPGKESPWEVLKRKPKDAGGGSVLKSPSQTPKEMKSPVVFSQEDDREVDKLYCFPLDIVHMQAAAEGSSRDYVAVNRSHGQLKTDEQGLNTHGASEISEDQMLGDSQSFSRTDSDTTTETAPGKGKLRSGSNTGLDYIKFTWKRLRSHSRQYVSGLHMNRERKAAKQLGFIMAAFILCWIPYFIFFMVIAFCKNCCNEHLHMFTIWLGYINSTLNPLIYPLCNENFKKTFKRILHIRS
Protocol: To evaluate in radioligand binding assays the activity of compounds of the invention, human recombinant histamine H1 receptor expressed in Chinese hamster ovary (CHO) cells (De Backer, M. D. et al., Biochem. Biophys. Res. Comm. 197(3):1601, 1993) in a modified Tris-HCl buffer (50 mM Tris-HCl, pH 7.4, 2 mM MgCl2, 100 mM NaCl, 250 mM Sucrose) was used. Compounds of the invention were incubated with 1.2 nM [^3H]Pyrilamine for 180 min. at 25° C. Non-specific binding was estimated in the presence of 1 μM pyrilamine. Receptor proteins were filtered and washed, the filters were then counted to determine [^3H]Pyrilamine specifically bound. Compounds were screened at 1 μM or lower, using 1% DMSO as vehicle. Biochemical assay results are presented as the percent inhibition of specific binding in Table 6.

[6] = target: T6, human recombinant dopamine D2L receptor (Homo sapiens, UniProt P14416); assay: Dopamine D2L radioligand binding ([3H]Spiperone); conditions: compound at 1 μM; read-out: Dopamine (1 μM) D2L, percent inhibition of specific binding
T6 construct: expressed in transfected cells; host or cells: CHO cells
T6 sequence (P14416 whole entry): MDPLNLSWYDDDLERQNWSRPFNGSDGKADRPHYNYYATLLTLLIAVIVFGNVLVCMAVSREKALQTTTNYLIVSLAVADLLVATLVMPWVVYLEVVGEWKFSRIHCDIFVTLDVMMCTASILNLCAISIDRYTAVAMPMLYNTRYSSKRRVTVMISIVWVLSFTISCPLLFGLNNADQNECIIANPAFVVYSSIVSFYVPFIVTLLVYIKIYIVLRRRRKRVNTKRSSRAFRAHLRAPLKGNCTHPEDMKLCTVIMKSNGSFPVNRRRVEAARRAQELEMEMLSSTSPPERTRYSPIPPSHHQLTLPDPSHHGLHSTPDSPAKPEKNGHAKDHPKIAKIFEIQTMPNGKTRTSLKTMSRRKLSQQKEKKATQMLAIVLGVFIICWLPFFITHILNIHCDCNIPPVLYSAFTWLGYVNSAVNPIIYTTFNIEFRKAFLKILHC
Protocol: To evaluate in radioligand binding assays the activity of compounds of the invention, human recombinant dopamine D2L receptor expressed in Chinese hamster ovary (CHO) cells (Grandy, D. K. et al. Proc. Natl. Acad. Sci. USA. 86:9762, 1989; Hayes, G. et al., Mol. Endocrinol. 6:920, 1992) in a modified Tris-HCl buffer (50 mM Tris-HCl, pH 7.4, 1.4 mM Ascorbic Acid, 0.001% BSA, 150 mM NaCl) was used. Compounds of the invention were incubated with 0.16 nM [^3H]Spiperone for 120 min. at 25° C. Non-specific binding was estimated in the presence of 10 μM Haloperidol. Receptor proteins were filtered and washed, the filters were then counted to determine [^3H]Spiperone specifically bound. Compounds were screened at 1 μM or lower, using 1% DMSO as vehicle. Biochemical assay results are presented as the percent inhibition of specific binding in Table 5.

T1 sequence (P28223 whole entry): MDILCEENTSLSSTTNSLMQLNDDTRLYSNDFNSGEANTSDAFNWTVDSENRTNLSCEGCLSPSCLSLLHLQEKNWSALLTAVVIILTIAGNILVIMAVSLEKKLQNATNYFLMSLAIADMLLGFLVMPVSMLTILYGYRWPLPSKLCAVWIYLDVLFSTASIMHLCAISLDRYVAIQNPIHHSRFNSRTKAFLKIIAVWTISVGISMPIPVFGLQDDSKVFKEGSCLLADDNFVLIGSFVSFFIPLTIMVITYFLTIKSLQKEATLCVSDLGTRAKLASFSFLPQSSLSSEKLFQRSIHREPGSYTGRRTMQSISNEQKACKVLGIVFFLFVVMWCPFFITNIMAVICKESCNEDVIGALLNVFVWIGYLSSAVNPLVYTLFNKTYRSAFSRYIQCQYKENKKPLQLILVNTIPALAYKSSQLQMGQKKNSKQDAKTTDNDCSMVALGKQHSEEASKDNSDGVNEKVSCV

SMILES | inhibition at 1 µM [1] [%] | inhibition at 1 µM [2] [%] | inhibition at 1 µM [3] [%] | inhibition at 1 µM [4] [%] | inhibition at 1 µM [5] [%] | inhibition at 1 µM [6] [%]
C/C(=C\n1c2c(c3cc(Cl)ccc31)CCN(C)CC2)c1ccccc1F [Compound No. 243, (E)-9-chloro-6-(2-(2-fluorophenyl)prop-1-enyl)-3-methyl-1,2,3,4,5,6-hexahydroazepino[4,5-b]indole] | 98 | 84 | 102 | 99 | 93 | 32
C/C(=C/n1c2c(c3cc(Cl)ccc31)CCN(C)CC2)c1ccccc1Cl [Compound No. 244, (Z)-9-chloro-6-(2-(2-chlorophenyl)prop-1-enyl)-3-methyl-1,2,3,4,5,6-hexahydroazepino[4,5-b]indole] | 100 | 99 | 101 | 103 | 102 | 43
C/C(=C\n1c2c(c3cc(Cl)ccc31)CCN(C)CC2)c1ccccc1Cl [Compound No. 245, (E)-9-chloro-6-(2-(2-chlorophenyl)prop-1-enyl)-3-methyl-1,2,3,4,5,6-hexahydroazepino[4,5-b]indole] | 99 | 88 | 99 | 97 | 96 | 16
C/C(=C\n1c2c(c3cc(Cl)ccc31)CCN(C)CC2)c1cccnc1 [Compound No. 246, (E)-9-chloro-3-methyl-6-(2-(pyridin-3-yl)prop-1-enyl)-1,2,3,4,5,6-hexahydroazepino[4,5-b]indole] | 98 | 48 | 99 | 94 | 96 | 14
C/C(=C\n1c2c(c3cc(C)ccc31)CCN(C)CC2)c1cccnc1 [Compound No. 247, (E)-3,9-dimethyl-6-(2-(pyridin-3-yl)prop-1-enyl)-1,2,3,4,5,6-hexahydroazepino[4,5-b]indole] | 98 | 36 | 99 | 74 | 82 | 8
C/C(=C\n1c2c(c3cc(Cl)ccc31)CCN(C)CC2)c1ccncc1 [Compound No. 248, (E)-9-chloro-3-methyl-6-(2-(pyridin-4-yl)prop-1-enyl)-1,2,3,4,5,6-hexahydroazepino[4,5-b]indole] | 99 | 44 | 101 | 103 | 88 | 81
C/C(=C/n1c2c(c3cc(Cl)ccc31)CCN(C)CC2)c1cccc(F)c1 [Compound No. 249, (Z)-9-chloro-6-(2-(3-fluorophenyl)prop-1-enyl)-3-methyl-1,2,3,4,5,6-hexahydroazepino[4,5-b]indole] | 100 | 97 | 98 | 101 | 98 | 35
C/C(=C\n1c2c(c3cc(Cl)ccc31)CCN(C)CC2)c1cccc(F)c1 [Compound No. 250, (E)-9-chloro-6-(2-(3-fluorophenyl)prop-1-enyl)-3-methyl-1,2,3,4,5,6-hexahydroazepino[4,5-b]indole] | 100 | 85 | 99 | 99 | 93 | 15
C/C(=C/n1c2c(c3cc(C)ccc31)CCN(C)CC2)c1cccc(F)c1 [Compound No. 251, (Z)-6-(2-(3-fluorophenyl)prop-1-enyl)-3,9-dimethyl-1,2,3,4,5,6-hexahydroazepino[4,5-b]indole] | 101 | 95 | 99 | 99 | 96 | 35
C/C(=C\n1c2c(c3cc(C)ccc31)CCN(C)CC2)c1cccc(F)c1 [Compound No. 252, (E)-6-(2-(3-fluorophenyl)prop-1-enyl)-3,9-dimethyl-1,2,3,4,5,6-hexahydroazepino[4,5-b]indole] | 96 | 87 | 87 | 98 | 93 | 19
C/C(=C\n1c2c(c3cc(C)ccc31)CCN(C)CC2)c1ccncc1 [Compound No. 253, (E)-3,9-dimethyl-6-(2-(pyridin-4-yl)prop-1-enyl)-1,2,3,4,5,6-hexahydroazepino[4,5-b]indole] | 102 | 31 | 101 | 103 | 32 | 55
COc1ccc(C#Cn2c3c(c4cc(Cl)ccc42)CCN(C)CC3)cc1F [Compound No. 283, 9-chloro-6-((3-fluoro-4-methoxyphenyl)ethynyl)-3-methyl-1,2,3,4,5,6-hexahydroazepino[4,5-b]indole] | 90 | 83 | 100 | 40 | 12 | 12

From US9481676B2, “Azepino[4,5-B]indoles and methods of use” (Medivation Technologies, Inc., priority 2008, dated 2016)
